Earlier results, collected in patent US20240365792A1, “Pest Control Formulations and Uses Thereof” (priority 2021, published 2024).

Key:
[1] = direct application to the skin
acetylcholinesterase = acetylcholinesterase (Homo sapiens, UniProt P22303); conditions: in humans
insects = conditions: compared with DEET
salamander larvae = conditions: in vivo

acetylcholinesterase, sequence (P22303 32-614): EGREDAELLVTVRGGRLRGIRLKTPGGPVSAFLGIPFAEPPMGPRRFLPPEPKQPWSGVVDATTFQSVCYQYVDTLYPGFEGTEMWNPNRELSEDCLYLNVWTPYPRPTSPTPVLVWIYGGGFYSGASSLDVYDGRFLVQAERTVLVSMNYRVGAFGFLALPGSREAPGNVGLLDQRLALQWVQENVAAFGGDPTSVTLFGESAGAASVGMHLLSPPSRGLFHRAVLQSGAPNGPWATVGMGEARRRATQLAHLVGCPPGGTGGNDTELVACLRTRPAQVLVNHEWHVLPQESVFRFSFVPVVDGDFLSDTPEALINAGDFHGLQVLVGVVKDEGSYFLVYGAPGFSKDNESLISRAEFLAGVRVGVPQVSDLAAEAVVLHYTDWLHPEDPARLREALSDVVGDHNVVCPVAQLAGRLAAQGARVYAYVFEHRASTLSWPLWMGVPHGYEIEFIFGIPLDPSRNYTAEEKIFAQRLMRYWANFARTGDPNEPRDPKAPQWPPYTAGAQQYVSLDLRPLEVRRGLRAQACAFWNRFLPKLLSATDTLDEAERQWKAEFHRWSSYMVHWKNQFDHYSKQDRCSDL

| Structure (SMILES) | irritancy [1] | inhibition of acetylcholinesterase (acetylcholinesterase) | effectiveness at repelling insects (insects) | toxicity to salamander larvae (salamander larvae) |
| --- | --- | --- | --- | --- |
| CCN(CC)C(=O)c1cccc(C)c1 [DEET, N,N-diethyl-3-methylbenzamide] | act as an irritant | inhibit acetylcholinesterase | – | – |
| CCC(C)OC(=O)N1CCCCC1CCO (centres unmarked) [icaridin] | less irritating than DEET | – | as effective as DEET | toxic to salamander larvae |
